The test system of this experiment is Pyricularia oryzae. The experiment is described as follows: Inhibition of spore germination of Magnaporthe oryzae. It counts as functional. The following applies: read-out: ED50 (the source's name).

EC50 data for two molecules are collected here from ChEMBL document CHEMBL3045121, “Synthesis of an Antifungal Naphthoquinone Isolated fromRhinacanthus nasutus(Acanthaceae)” (1995).

The structures appear in SMILES notation. Converted amounts (≈) assume the structure as drawn.

As to `C/C=C(\C)CC/C=C(\C)C(=O)OCC(C)(C)CC1=C(O)C(=O)c2ccccc2C1=O` [RHINACANTHIN C], the EC50 was 0.2 µg/mL (≈ 0.487 µM).

As for `CC1(C)COC2=C(C1)C(=O)C(=O)c1ccccc12` [RHINACANTHONE], the EC50 worked out at 0.4 µg/mL (≈ 1.65 µM).
